According to PMC9878307, “Derivatives of 2-aminobenzimidazole potentiate ASIC open state with slow kinetics of activation and desensitization” (Frontiers in Physiology, 2023):

Tests used:
Assay type in all cases: cell-based
[1] = molecular target: T1, ASIC3 (Rattus norvegicus, UniProt O35240); test: whole-cell patch clamp, […] inhibition of peak current at […]
T1 construct: rASIC3 expressed in CHO cells
T1 sequence (O35240 1-533): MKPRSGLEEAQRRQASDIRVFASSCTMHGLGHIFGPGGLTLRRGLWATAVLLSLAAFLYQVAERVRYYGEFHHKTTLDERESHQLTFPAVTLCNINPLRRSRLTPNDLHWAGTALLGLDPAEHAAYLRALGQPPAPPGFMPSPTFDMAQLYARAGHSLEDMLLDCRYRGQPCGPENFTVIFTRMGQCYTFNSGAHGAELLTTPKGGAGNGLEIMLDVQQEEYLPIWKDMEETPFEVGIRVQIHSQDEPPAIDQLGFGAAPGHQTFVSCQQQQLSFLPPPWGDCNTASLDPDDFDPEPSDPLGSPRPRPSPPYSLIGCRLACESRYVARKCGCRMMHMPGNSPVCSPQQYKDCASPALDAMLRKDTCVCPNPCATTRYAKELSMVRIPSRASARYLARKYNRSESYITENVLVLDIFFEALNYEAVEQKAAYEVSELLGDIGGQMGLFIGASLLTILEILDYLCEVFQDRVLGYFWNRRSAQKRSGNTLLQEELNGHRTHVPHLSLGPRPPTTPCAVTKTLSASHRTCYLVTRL

[2] = molecular target: T2, ASIC2a (Rattus norvegicus, UniProt Q62962); test: whole-cell patch clamp, […] inhibition of peak current at […], pH […]; conditions: pH 5
T2 construct: gene Asic2; rASIC2a homomer expressed in CHO cells
T2 sequence (Q62962 1-512): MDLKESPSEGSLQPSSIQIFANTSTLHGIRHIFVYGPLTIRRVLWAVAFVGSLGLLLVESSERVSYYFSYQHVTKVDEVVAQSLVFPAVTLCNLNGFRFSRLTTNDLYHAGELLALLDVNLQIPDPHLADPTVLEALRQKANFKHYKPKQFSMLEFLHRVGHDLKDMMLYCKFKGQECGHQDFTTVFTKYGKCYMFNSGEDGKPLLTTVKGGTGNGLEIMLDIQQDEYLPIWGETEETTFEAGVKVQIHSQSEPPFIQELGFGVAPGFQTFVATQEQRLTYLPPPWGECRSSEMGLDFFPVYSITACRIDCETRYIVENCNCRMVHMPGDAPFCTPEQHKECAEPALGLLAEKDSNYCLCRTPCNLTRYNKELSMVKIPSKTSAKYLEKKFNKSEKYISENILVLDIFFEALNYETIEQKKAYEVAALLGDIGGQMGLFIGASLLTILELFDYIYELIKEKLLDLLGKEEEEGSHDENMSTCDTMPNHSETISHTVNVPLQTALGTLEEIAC

[3] = molecular target: T2, ASIC2a; test: whole-cell patch clamp, potentiation of acid-evoked peak current at pH […]
[4] = molecular target: T3, ASIC1a (Rattus norvegicus, UniProt P55926); test: whole-cell patch clamp, slowed desensitization ([…] at […], […] at […]), amplitude unchanged
T3 construct: gene Asic1; rASIC1a homomer expressed in CHO cells
T3 sequence (P55926 1-526): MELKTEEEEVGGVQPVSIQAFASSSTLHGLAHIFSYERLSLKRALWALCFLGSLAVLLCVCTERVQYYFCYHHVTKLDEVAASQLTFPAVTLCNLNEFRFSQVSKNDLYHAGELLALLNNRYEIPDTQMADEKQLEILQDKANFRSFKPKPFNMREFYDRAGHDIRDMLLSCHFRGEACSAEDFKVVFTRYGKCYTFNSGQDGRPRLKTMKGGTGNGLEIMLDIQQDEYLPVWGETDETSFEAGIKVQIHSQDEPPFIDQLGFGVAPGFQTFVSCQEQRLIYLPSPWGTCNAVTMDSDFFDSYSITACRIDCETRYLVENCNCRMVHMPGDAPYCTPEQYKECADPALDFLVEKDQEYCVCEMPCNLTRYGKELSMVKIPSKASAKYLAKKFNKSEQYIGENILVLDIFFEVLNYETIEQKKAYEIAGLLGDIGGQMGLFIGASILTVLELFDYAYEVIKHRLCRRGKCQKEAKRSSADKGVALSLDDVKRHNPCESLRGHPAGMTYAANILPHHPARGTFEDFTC

inhibition at 70 µM [1] | inhibition at 70 µM [2] | EC50 [3] | SMILES | fold slowing of desensitization [4]
74 ± 8% | 75 ± 12% |  | N=C(N)c1ccc(/N=N/Nc2ccc(C(=N)N)cc2)cc1 [diminazene] | 
 |  | 7.52 ± 0.33 µM | Nc1n(CC(=O)c2ccc(F)cc2)c2ccccc2[n+]1CCN1CCOCC1 [Ru-1355] | 1.28 ± 0.15
